Assay results: US20250195510A1, “NOVEL METHODS” (priority 2022, published 2025)

Test system: hippocampal gene expression (NanoString gene sets)
Experiment: NanoString nCounter hippocampal gene expression after coinjection of LPS and lumateperone
Assay type: in vivo, mouse
Text: NanoString. The mouse neuropathology panel includes 770 genes associated with themes of neurotransmission, neuron-glia interaction, neuroplasticity, cell structure integrity, neuroinflammation and metabolism. A total of 13 housekeeping genes are used for expression normalization (Aars: NM_146217.4, Asb10: NM_080444.4, Ccdc127: NM_024201.3, Cnot10: NM_153585.5, Csnk2a2: NM_009974.3, Fam104a: NM_138598.5, Gusb: NM_010368.1, Lars: NM_134137.2, Mtol: NM_026658.2, Supt7l: NM_028150.1, Tada2b: NM_001170454.1:3224, Tbp: NM_013684.3:70, and Xpnpepl: NM_133216.3:1826, see FIG. 1-1). Hippocampal RNA is extracted using the Qiagen microkit (Qiagen) and is evaluated by the Agilent 2100 Bioanalyzer (Agilent Technologies, Santa Clara, CA) to assess RNA concentration, quality, and integrity. Sample preparation, hybridization, and detection (100 ng per sample, n=5-6 per group) are carried out according to NanoString manufacturer's instructions (NanoString Technologies, Seattle, WA). The normalized data are transformed to log 2 score to express the fold change. NanoString results (raw and normalized counts) are derived from RCC files using the nSolver software (version 2.6; NanoString Technologies). A complementary gene software analysis tool, ROSALIND® Advanced Analysis Software (NanoString Technologies), is also used, which provides comprehensive free cloud-based data analysis for nCounter data by directly analyzing raw RCC files generated from NanoString. Data are imported into ROSALIND® Advanced Analysis Software for normalization, calculation of fold-changes, P values, identification of enriched pathways, and heatmaps.
The NanoString platform has been effectively used to quantitatively measure in vivo gene expression of target genes in several neuropathological mouse models.
It is calculated similarly to a unidirected global significance score, but it takes into account the sign of the t-statistic. Scores were calculated by nSolver software, using the control group as a reference.
Next, using ROSALIND® Advanced Analysis Software and a filter set to P<.

[1] = Inflammation gene, LPS 500 μg/kg + Luma 3 mg/kg, 2 h
[2] = Microglia gene, LPS 500 μg/kg + Luma 3 mg/kg, 2 h
[3] = Neuroprotect gene, LPS 500 μg/kg + Luma 3 mg/kg, 2 h

CN1CCN2c3c(cccc31)[C@@H]1CN(CCCC(=O)c3ccc(F)cc3)CC[C@@H]12 [Lumateperone, 4-((6bR,10aS)-3-methyl-2,3,6b,9,10,10a-hexahydro-1H-pyrido[3′,4′: 4,5]pyrrolo[1,2,3-de]quinoxaline-8 (7H)-yl)-1-(4-fluorophenyl)-1-butanone]
Casp4 hippocampal expression, Log2, LPS + Luma vs LPS [1]: −2.24 | Ccr2 hippocampal expression, Log2, LPS + Luma vs LPS [1]: −1.71 | Ikbkb hippocampal expression, Log2, LPS + Luma vs LPS [1]: −0.132 | Il1b hippocampal expression, Log2, LPS + Luma vs LPS [1]: −1.42 | Il1r1 hippocampal expression, Log2, LPS + Luma vs LPS [1]: −0.309 | Lrg1 hippocampal expression, Log2, LPS + Luma vs LPS [1]: −1.67 | Ly6a hippocampal expression, Log2, LPS + Luma vs LPS [1]: −0.925 | Myd88 hippocampal expression, Log2, LPS + Luma vs LPS [1]: −0.433 | Nfkb2 hippocampal expression, Log2, LPS + Luma vs LPS [1]: −0.972 | Osmr hippocampal expression, Log2, LPS + Luma vs LPS [1]: −1.21 | Socs3 hippocampal expression, Log2, LPS + Luma vs LPS [1]: −1.57 | Tnfrsf1a hippocampal expression, Log2, LPS + Luma vs LPS [1]: −0.434 | Tnfrsf1b hippocampal expression, Log2, LPS + Luma vs LPS [1]: −0.31 | Directed global significance score vs control group, gene set Oligodendrocyte function (LPS 500 μg/kg + Luma 3 mg/kg coinjected, 2 h, LPS alone 0.181): 0.48 | Directed global significance score vs control group, gene set Insulin signaling (LPS 500 μg/kg + Luma 3 mg/kg coinjected, 2 h, LPS alone 0.28): 0.809 | Directed global significance score vs control group, gene set Epigenetic regulation (LPS 500 μg/kg + Luma 3 mg/kg coinjected, 2 h, LPS alone 0.312): 0.892 | Directed global significance score vs control group, gene set Microglia function (LPS 500 μg/kg + Luma 3 mg/kg coinjected, 2 h, LPS alone 0.377): 0.915 | Directed global significance score vs control group, gene set Cellular stress (LPS 500 μg/kg + Luma 3 mg/kg coinjected, 2 h, LPS alone 0.499): 0.813 | Directed global significance score vs control group, gene set Carbohydrate metabolism (LPS 500 μg/kg + Luma 3 mg/kg coinjected, 2 h, LPS alone 0.507): 0.668 | Directed global significance score vs control group, gene set Adaptive immune response (LPS 500 μg/kg + Luma 3 mg/kg coinjected, 2 h, LPS alone 0.571): 0.938 | Directed global significance score vs control group, gene set DNA damage (LPS 500 μg/kg + Luma 3 mg/kg coinjected, 2 h, LPS alone 0.578): 0.042 | Directed global significance score vs control group, gene set Autophagy (LPS 500 μg/kg + Luma 3 mg/kg coinjected, 2 h, LPS alone 0.588): 0.548 | Directed global significance score vs control group, gene set Growth factor signaling (LPS 500 μg/kg + Luma 3 mg/kg coinjected, 2 h, LPS alone 0.76): 0.698 | Directed global significance score vs control group, gene set Notch (LPS 500 μg/kg + Luma 3 mg/kg coinjected, 2 h, LPS alone 0.876): 1.05 | Directed global significance score vs control group, gene set Apoptosis (LPS 500 μg/kg + Luma 3 mg/kg coinjected, 2 h, LPS alone 0.915): −0.453 | Directed global significance score vs control group, gene set Innate immune response (LPS 500 μg/kg + Luma 3 mg/kg coinjected, 2 h, LPS alone 0.939): −0.655 | Directed global significance score vs control group, gene set Cytokine signaling (LPS 500 μg/kg + Luma 3 mg/kg coinjected, 2 h, LPS alone 0.993): −0.599 | Directed global significance score vs control group, gene set Inflammatory signaling (LPS 500 μg/kg + Luma 3 mg/kg coinjected, 2 h, LPS alone 1.086): −0.93 | Directed global significance score vs control group, gene set NF-kB (LPS 500 μg/kg + Luma 3 mg/kg coinjected, 2 h, LPS alone 1.215): −0.689 | Directed global significance score vs control group, gene set Astrocyte function (LPS 500 μg/kg + Luma 3 mg/kg coinjected, 2 h, LPS alone 1.391): −0.308 | Directed global significance score vs control group, gene set Angiogenesis (LPS 500 μg/kg + Luma 3 mg/kg coinjected, 2 h, LPS alone −0.144): 0.891 | Directed global significance score vs control group, gene set Cell cycle (LPS 500 μg/kg + Luma 3 mg/kg coinjected, 2 h, LPS alone −0.148): 0.385 | Directed global significance score vs control group, gene set Lipid metabolism (LPS 500 μg/kg + Luma 3 mg/kg coinjected, 2 h, LPS alone −0.192): 0.89 | Directed global significance score vs control group, gene set Neurons and neurotransmission (LPS 500 μg/kg + Luma 3 mg/kg coinjected, 2 h, LPS alone −0.422): 0.979 | Directed global significance score vs control group, gene set Wnt (LPS 500 μg/kg + Luma 3 mg/kg coinjected, 2 h, LPS alone −0.476): 1.186 | Directed global significance score vs control group, gene set Matrix remodeling (LPS 500 μg/kg + Luma 3 mg/kg coinjected, 2 h, LPS alone −0.583): 0.447 | genes that promote inflammation (e.g., Osmr, Tnfrsf1a, Tnfrsf11b, Prl, Il1r1), ROSALIND analysis (LPS+Luma versus LPS alone, filter P<.04999): significantly downregulates | Directed global significance score vs control group, gene set Adaptive immune response (Luma alone): 0.344 | Directed global significance score vs control group, gene set Angiogenesis (Luma alone): 0.616 | Directed global significance score vs control group, gene set Apoptosis (Luma alone): −0.442 | Directed global significance score vs control group, gene set Astrocyte function (Luma alone): −0.837 | Directed global significance score vs control group, gene set Autophagy (Luma alone): −0.731 | Directed global significance score vs control group, gene set Carbohydrate metabolism (Luma alone): −0.837 | Directed global significance score vs control group, gene set Cell cycle (Luma alone): −0.75 | Directed global significance score vs control group, gene set Cellular stress (Luma alone): −0.432 | Directed global significance score vs control group, gene set Cytokine signaling (Luma alone): −0.543 | Directed global significance score vs control group, gene set DNA damage (Luma alone): −0.614 | Directed global significance score vs control group, gene set Epigenetic regulation (Luma alone): 0.729 | Directed global significance score vs control group, gene set Growth factor signaling (Luma alone): 0.226 | Directed global significance score vs control group, gene set Inflammatory signaling (Luma alone): −1.032 | Directed global significance score vs control group, gene set Innate immune response (Luma alone): −0.611 | Directed global significance score vs control group, gene set Insulin signaling (Luma alone): 0.858 | Directed global significance score vs control group, gene set Lipid metabolism (Luma alone): −0.818 | Directed global significance score vs control group, gene set Matrix remodeling (Luma alone): −0.4 | Directed global significance score vs control group, gene set Microglia function (Luma alone): 0.466 | Directed global significance score vs control group, gene set NF-kB (Luma alone): −0.499 | Directed global significance score vs control group, gene set Neurons and neurotransmission (Luma alone): 0.435 | Directed global significance score vs control group, gene set Notch (Luma alone): 0.834 | Directed global significance score vs control group, gene set Oligodendrocyte function (Luma alone): −1.176 | Directed global significance score vs control group, gene set Wnt (Luma alone): 0.9 | Cd36 hippocampal expression, Log2, LPS + Luma vs LPS [2]: 0.332 | Cx3cr1 hippocampal expression, Log2, LPS + Luma vs LPS [2]: 0.231 | Maff hippocampal expression, Log2, LPS + Luma vs LPS [2]: 1.21 | P2ry12 hippocampal expression, Log2, LPS + Luma vs LPS [2]: 0.14 | Ptgs2 hippocampal expression, Log2, LPS + Luma vs LPS [2]: −0.358 | Tmem100 hippocampal expression, Log2, LPS + Luma vs LPS [2]: 0.186 | Tmem144 hippocampal expression, Log2, LPS + Luma vs LPS [2]: 0.227 | Cldn5 hippocampal expression, Log2, LPS + Luma vs LPS [3]: 0.812 | Egr1 hippocampal expression, Log2, LPS + Luma vs LPS [3]: 0.87 | Fos hippocampal expression, Log2, LPS + Luma vs LPS [3]: 2.27 | Ngf hippocampal expression, Log2, LPS + Luma vs LPS [3]: 0.126 | Vegfa hippocampal expression, Log2, LPS + Luma vs LPS [3]: 0.227
